According to patent publication US10689354B2, “Aminoazole derivative” (Teijin Pharma Limited, priority 2015, dated 2020):

What was measured:
[1] = target: T1, androgen receptor (AR-LBD) (Rattus norvegicus, UniProt P15207); assay: Evaluation of androgen receptor affinity (PolarScreen Androgen Receptor Competitor Assay Kit, Red; fluorescence polarization); settings: 22° C. for 5 hours, relative to binding rate of 1 μM DHT, read-out: AR affinity (pEC50) (converted)
T1 construct: 5 μL of 2×AR-LBD/Fluoromone AL Red Complex contained in the kit; purchased Invitrogen
T1 sequence (P15207 651-882 limits assumed): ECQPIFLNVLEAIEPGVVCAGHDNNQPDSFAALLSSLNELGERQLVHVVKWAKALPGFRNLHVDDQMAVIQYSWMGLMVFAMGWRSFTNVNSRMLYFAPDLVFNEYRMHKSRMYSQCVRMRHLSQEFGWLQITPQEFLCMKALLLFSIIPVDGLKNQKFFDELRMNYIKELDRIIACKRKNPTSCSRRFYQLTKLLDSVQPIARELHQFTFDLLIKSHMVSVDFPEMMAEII
How it was run: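 Fluorescence polarization read-out after 5 h at 22° C of compound with a red-fluorophore-labelled AR-LBD complex. Displacement is scaled against 1 μM DHT, and the log reciprocal of the concentration reaching half that effect gives pEC50 via four-parameter curve fitting.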

human androgen receptor = target: T2, human androgen receptor (Homo sapiens, UniProt P10275); assay: Reporter assay of an androgen receptor responsive sequence (luciferase, transiently transfected HEK293 cells); assay type: cell-based; settings: 24 hours incubation, relative to activity of 100 nM DHT, read-out: AR transcriptive activity (pEC50) (converted)
T2 construct: expressed in transfected cells; host or cells: HEK293
T2 sequence (P10275 1-920): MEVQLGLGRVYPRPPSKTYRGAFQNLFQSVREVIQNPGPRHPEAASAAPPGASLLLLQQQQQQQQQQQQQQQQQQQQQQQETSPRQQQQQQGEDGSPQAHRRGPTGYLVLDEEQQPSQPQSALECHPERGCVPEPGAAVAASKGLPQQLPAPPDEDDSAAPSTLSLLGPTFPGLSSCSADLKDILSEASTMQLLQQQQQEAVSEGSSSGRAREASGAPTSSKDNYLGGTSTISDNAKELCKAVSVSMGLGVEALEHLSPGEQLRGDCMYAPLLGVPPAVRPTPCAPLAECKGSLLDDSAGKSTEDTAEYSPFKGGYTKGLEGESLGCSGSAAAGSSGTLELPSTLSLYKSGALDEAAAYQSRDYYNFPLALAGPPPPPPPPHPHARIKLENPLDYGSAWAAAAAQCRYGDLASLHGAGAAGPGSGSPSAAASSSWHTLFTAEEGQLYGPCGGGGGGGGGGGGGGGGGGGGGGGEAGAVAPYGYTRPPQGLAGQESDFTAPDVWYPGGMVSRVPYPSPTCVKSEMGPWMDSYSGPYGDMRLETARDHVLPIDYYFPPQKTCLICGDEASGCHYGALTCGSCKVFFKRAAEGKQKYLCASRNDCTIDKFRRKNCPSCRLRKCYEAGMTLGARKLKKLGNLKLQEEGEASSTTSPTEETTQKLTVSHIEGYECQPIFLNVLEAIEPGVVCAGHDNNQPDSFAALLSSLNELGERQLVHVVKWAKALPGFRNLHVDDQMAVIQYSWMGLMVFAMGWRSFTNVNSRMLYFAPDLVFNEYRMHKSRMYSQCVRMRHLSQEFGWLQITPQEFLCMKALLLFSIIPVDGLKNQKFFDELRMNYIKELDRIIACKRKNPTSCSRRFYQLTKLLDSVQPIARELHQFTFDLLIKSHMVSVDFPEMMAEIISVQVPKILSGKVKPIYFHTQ
How it was run: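 HEK293 cells transiently transfected for 3 h with ARE-firefly luciferase, full-length human AR and TK-Renilla plasmids, then exposed to compound for 24 h at 37 °C in 5% charcoal-treated FBS/DMEM. Dual-Glo luminescence read; pEC50 from 4-parameter fit relative to 100 nM DHT.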

Structure (SMILES) | EC50 [1] [nM] | EC50 (human androgen receptor) [nM]
Cc1sc(N(CCc2ccc(Cl)cc2)c2ccc(C#N)cc2)nc1C(=O)NS(C)(=O)=O [Compound 133, 2-[N-[2-(4-chlorophenyl)ethyl]-4-cyano-anilino]-5-methyl-N-methylsulfonyl-thiazole-4-carboxamide] | 158 | 1580
Cc1sc(N(Cc2ccc(Cl)cn2)c2ccc(C#N)cc2)nc1C(=O)NS(C)(=O)=O [Compound 152, 2-[N-[(5-chloro-2-pyridyl)methyl]-4-cyano-anilino]-5-methyl-N-methylsulfonyl-thiazole-4-carboxamide] | 200 | 100
COCCCS(=O)(=O)NC(=O)c1nc(N(Cc2ccc(OC(F)(F)F)cc2)c2ccc(C#N)cc2)sc1C [Compound 157, 2-[4-cyano-N-[[4-(trifluoromethoxy)phenyl]methyl]anilino]-N-(3-methoxypropylsulfonyl)-5-methyl-thiazole-4-carboxamide] | 31.6 | 200
Cc1sc(N(Cc2ccccc2)c2ccc(C(F)(F)F)cc2)nc1C(=O)NS(C)(=O)=O [Compound 341, 2-[N-benzyl-4-(trifluoromethyl)anilino]-5-methyl-N-methylsulfonyl-thiazole-4-carboxamide] | 63.1 | 1260
COCCCS(=O)(=O)NC(=O)c1nc(N(Cc2cnc(C(F)(F)F)c(F)c2)c2ccc(C#N)cc2)sc1C [Compound 533, 2-[4-cyano-N-[[5-fluoro-6-(trifluoromethyl)-3-pyridyl]methyl]anilino]-N-(3-methoxypropylsulfonyl)-5-methyl-thiazole-4-carboxamide] | 158 | 794
COCCOCCCS(=O)(=O)NC(=O)c1nc(N(Cc2ccc(OC(F)(F)F)cc2)c2ccc(C#N)cc2)sc1C [Compound 540, 2-[4-cyano-N-[[4-(trifluoromethoxy)phenyl]methyl]anilino]-N-[3-(2-methoxyethoxy)propylsulfonyl]-5-methyl-thiazole-4-carboxamide] | 316 | > 10000
COCCCS(=O)(=O)NC(=O)c1nc(N(Cc2ccc(OC(F)F)c(F)c2)c2ccc(C#N)cc2)sc1C [Compound 526, 2-[4-cyano-N-[[4-(difluoromethoxy)-3-fluoro-phenyl]methyl]anilino]-N-(3-methoxypropylsulfonyl)-5-methyl-thiazole-4-carboxamide] | 39.8 | 100
COc1c(F)ccc(CN(c2ccc(C#N)cc2)c2nc(C(=O)NS(C)(=O)=O)c(C)s2)c1F [Compound 111, 2-[4-cyano-N-[(2,4-difluoro-3-methoxy-phenyl)methyl]anilino]-5-methyl-N-methylsulfonyl-thiazole-4-carboxamide] | 50.1 | 63.1
Cc1sc(N(Cc2ccccc2)c2ccc3ncsc3c2)nc1C(=O)NS(C)(=O)=O [Compound 335, 2-[1,3-benzothiazol-6-yl(benzyl)amino]-5-methyl-N-methylsulfonyl-thiazole-4-carboxamide] | 631 | 1580
COCCCS(=O)(=O)NC(=O)c1nc(N(Cc2cc(OC(F)F)ccc2F)c2ccc(C#N)cc2)sc1C [Compound 521, 2-[4-cyano-N-[[5-(difluoromethoxy)-2-fluoro-phenyl]methyl]anilino]-N-(3-methoxypropylsulfonyl)-5-methyl-thiazole-4-carboxamide] | 31.6 | 1260
Cc1sc(N(CCc2cccc(F)c2)c2ccc(C#N)cc2)nc1C(=O)NS(C)(=O)=O [Compound 83, 2-[4-cyano-N-[2-(3-fluorophenyl)ethyl]anilino]-5-methyl-N-methylsulfonyl-thiazole-4-carboxamide] | 126 | 2510
Cc1sc(N(CCc2ccc3ccccc3c2)c2ccc(C#N)cc2)nc1C(=O)NS(C)(=O)=O [Compound 88, 2-[4-cyano-N-[2-(2-naphthyl)ethyl]anilino]-5-methyl-N-methylsulfonyl-thiazole-4-carboxamide] | 316 | > 10000

The remaining lines, values ahead:

EC50 [1] [nM] | EC50 (human androgen receptor) [nM] | Structure (SMILES)
251 | 3980 | Cc1oc(N(CCc2ccccc2)c2ccc(C#N)cc2)nc1C(=O)NS(C)(=O)=O [Compound 625, 2-[4-cyano-N-(2-phenylethyl)anilino]-5-methyl-N-methylsulfonyl-oxazole-4-carboxamide]
79.4 | 501 | Cc1sc(N(Cc2ccc(F)cc2Br)c2ccc(C#N)cc2)nc1C(=O)NS(C)(=O)=O [Example 177, 2-[N-[(2-bromo-4-fluoro-phenyl)methyl]-4-cyano-anilino]-5-methyl-N-methylsulfonyl-thiazole-4-carboxamide]
31.6 | 79.4 | CS(=O)(=O)NC(=O)c1nc(N(Cc2ccc(OC(F)(F)F)cc2)c2ccc(C#N)cc2)sc1Br [Example 253, 5-bromo-2-[4-cyano-N-[[4-(trifluoromethoxy)phenyl]methyl]anilino]-N-methylsulfonyl-thiazole-4-carboxamide]
316 | 2510 | CCc1oc(N(CC[C@@H]2CCCC[C@H]2O)c2ccc(C#N)cc2)nc1C(=O)NS(C)(=O)=O (racemic) [Compound 629, 2-[4-cyano-N-[2-[trans-2-hydroxycyclohexyl]ethyl]anilino]-5-ethyl-N-methylsulfonyl-oxazole-4-carboxamide]
63.1 | 316 | CS(=O)(=O)NC(=O)c1nc(N(Cc2ccccc2Cl)c2ccc(C#N)cc2)sc1Cl [Example 263, 5-chloro-2-[N-[(2-chlorophenyl)methyl]-4-cyano-anilino]-N-methylsulfonyl-thiazole-4-carboxamide]
39.8 | 631 | CCc1oc(N(Cc2ccc(OC(F)F)c(F)c2)c2ccc(C#N)cc2)nc1C(=O)NS(C)(=O)=O [Compound 654, 2-[4-cyano-N-[[4-(difluoromethoxy)-3-fluoro-phenyl]methyl]anilino]-5-ethyl-N-methylsulfonyl-oxazole-4-carboxamide]
79.4 | 3160 | COC[C@H](C)Oc1ccc(CN(c2ccc(C#N)cc2)c2nc(C(=O)NS(C)(=O)=O)c(C)s2)cc1 [Compound 584, 2-[4-cyano-N-[[4-[(1S)-2-methoxy-1-methyl-ethoxy]phenyl]methyl]anilino]-5-methyl-N-methylsulfonyl-thiazole-4-carboxamide]
50.1 | 1000 | CCS(=O)(=O)NC(=O)c1nc(N(Cc2ccc(Cl)cc2)c2ccc(C#N)cc2)oc1C [Compound 627, 2-[N-[(4-chlorophenyl)methyl]-4-cyano-anilino]-N-ethylsulfonyl-5-methyl-oxazole-4-carboxamide]
31.6 | 31.6 | CS(=O)(=O)NC(=O)c1nc(N(Cc2cccc(Cl)c2)c2ccc(C#N)cc2)sc1Br [Example 247, 5-bromo-2-[N-[(3-chlorophenyl)methyl]-4-cyano-anilino]-N-methylsulfonyl-thiazole-4-carboxamide]
200 | 7940 | Cc1sc(N(Cc2ccc(OCCCO)cc2)c2ccc(C#N)cc2)nc1C(=O)NS(C)(=O)=O [Compound 579, 2-[4-cyano-N-[[4-(3-hydroxypropoxy)phenyl]methyl]anilino]-5-methyl-N-methylsulfonyl-thiazole-4-carboxamide]
100 | > 10000 | Cc1sc(N(CCC2CCCCC2)Cc2ccc(OC(F)(F)F)cc2)nc1C(=O)NS(C)(=O)=O [Compound 732, 2-[2-cyclohexylethyl-[[4-(trifluoromethoxy)phenyl]methyl]amino]-5-methyl-N-methylsulfonyl-thiazole-4-carboxamide]
31.6 | 50.1 | CS(=O)(=O)NC(=O)c1nc(N(Cc2ccccc2)c2ccc(C#N)cc2)sc1Cl [Compound 657, 2-(N-benzyl-4-cyano-anilino)-5-chloro-N-methylsulfonyl-thiazole-4-carboxamide]
